US20150086511A1, “SURVIVAL, DIFFERENTIATION AND STRUCTURAL INTEGRATION OF HUMAN NEURAL STEM CELLS GRAFTED INTO THE ADULT RAT SPINAL CORD” (NEURALSTEM, INC., priority 2005, published 2015)

Experiments:
SOD1-G93A mice = assay: Clinical outcomes (disease onset, life span, motor score) in SOD1-G93A mice grafted with human NSCs; conditions: SOD1-G93A mice grafted with live NSCs, by immunosuppressive regimen
Method: Thus, five experimental groups were given different immunosuppressive treatments: the first group was treated with FK506 monotherapy (Prograf, Fujisawa Healthcare, Inc., Deerfield, Ill.) (2 μg/g/day, n=23); a second group was treated with a double immunosuppressive regimen combining FK506 and rapamycin (Calbiochem, La Jolla, Calif.) (1 μg/g/day each, n=21); a third group received triple immunosuppression with FK506, rapamycin, and MMF (CellCept, Roche, Nutley, N.J.) (1 μg/g/day each for FK506 and rapamycin, 100 μg/g/day for MMF, n=14); a fourth group was treated with CD4 antibodies (clone GK1.5, 20 μg/g/day, n=12); and a fifth group (n=10) was treated with FK506 plus rapamycin exactly as the second group, except that subjects were grafted with dead cells. Dead-cell grafts utilized cells that were exposed to repeated freezing-thawing and served to control for the potential therapeutic effects of immunosuppressants themselves on motor neuron disease. […]
Clinical outcomes were studied on the same set of data originating from five concurrent treatment groups allowed to survive to terminal illness. […] Variance in disease onset and life span was analyzed with one-way ANOVA, followed by a Fisher LSD post hoc test. Variance in motor score curves was analyzed by repeated-measures ANOVA, followed by Fisher LSD testing. […]

[1] = test system: SOD1-G93A mice grafted with human NSCs; assay: Graft rejection and human NSC graft survival under immunosuppressive regimens in SOD1-G93A mice (ICC for HNu, CD4, CD8, DX5, Iba-1); conditions: compared to the double immunosuppressive regimen
Method: Thus, five experimental groups were given different immunosuppressive treatments: the first group was treated with FK506 monotherapy (Prograf, Fujisawa Healthcare, Inc., Deerfield, Ill.) (2 μg/g/day, n=23); a second group was treated with a double immunosuppressive regimen combining FK506 and rapamycin (Calbiochem, La Jolla, Calif.) (1 μg/g/day each, n=21); a third group received triple immunosuppression with FK506, rapamycin, and MMF (CellCept, Roche, Nutley, N.J.) (1 μg/g/day each for FK506 and rapamycin, 100 μg/g/day for MMF, n=14); a fourth group was treated with CD4 antibodies (clone GK1.5, 20 μg/g/day, n=12); and a fifth group (n=10) was treated with FK506 plus rapamycin exactly as the second group, except that subjects were grafted with dead cells. Dead-cell grafts utilized cells that were exposed to repeated freezing-thawing and served to control for the potential therapeutic effects of immunosuppressants themselves on motor neuron disease. […] Males and females were randomly admixed in the various experimental groups to minimize a systemic effect of gender on disease progression and treatment response. […]

| Compound | average disease onset (SOD1-G93A mice) | life span (SOD1-G93A mice) | effect of adding MMF to FK506 plus rapamycin on graft survival and infiltration by CD4/CD8 (+) cells or microglia/macrophages [1] |
| --- | --- | --- | --- |
| C=CC[C@@H]1/C=C(\C)C[C@H](C)C[C@H](OC)[C@H]2O[C@@](O)(C(=O)C(=O)N3CCCC[C@H]3C(=O)O[C@H](/C(C)=C/[C@@H]3CC[C@@H](O)[C@H](OC)C3)[C@H](C)[C@@H](O)CC1=O)[C@H](C)C[C@@H]2OC [FK506] | 13.2±1.8 weeks | 17.6±2.0 weeks | – |
| COc1c(C)c2c(c(O)c1C/C=C(\C)CCC(=O)OCCN1CCOCC1)C(=O)OC2 [MMF, mycophenolate mofetil] | – | – | no apparent effects |
